Laboratory results reported in patent US20240319200A1, “Covalent Molecular Glue Stabilizers and Platform” (The Regents of the University of California, priority 2021, published 2024).

Key:
[1] = system: 14-3-3 SFN protein / ERα phosphopeptide substrate; assay: Fluorescence polarization, 14-3-3 SFN with ERα phosphopeptide substrate; assay type: binding; settings: SFN with C38 and C96 mutated to serines
Experimental: We performed a fluorescence polarization screen with our cysteine-reactive covalent ligand libraries to identify 14-3-3 covalent molecular glues that enhance interactions of SFN with phosphopeptide 14-3-3 interacting sequences ERα. This screen was performed with recombinant pure 14-3-3 SFN protein and a 5-FAM- or rhodamine-conjugated ERα phosphopeptide substrate looking for cysteine-reactive covalent ligands that would stabilize 14-3-3 interactions with the phosphopeptide substrate.

[2] = system: SFN / TAZ phosphopeptide substrate; assay: Fluorescence polarization, 14-3-3 SFN with TAZ phosphopeptide substrate; assay type: binding; settings: SFN with C38 and C96 mutated to serines
[3] = system: ERα transcription factor luciferase reporter in T47D breast cancer cells; assay: ERα luciferase reporter activity; assay type: cell-based
From the text: (§1) […]. […] […]. […] […].

[4] = system: Hippo pathway transcription factor luciferase reporter in MCF7 breast cancer cells; assay: Hippo pathway transcription factor luciferase reporter activity; assay type: cell-based
From the text: as §1

[5] = SFN knockdown, breast cancer cells

C=CC(=O)N1CCC2(CCN(Cc3ccccc3)C2)C1 (stereo not drawn) [EN171]
EN171-mediated stabilization of 14-3-3 interactions with ERα [1]: significantly attenuated
EN171-mediated stabilization of 14-3-3 interactions with TAZ [2]: significantly attenuated
EN171-mediated inhibition of ERα transcriptional activity [3, 5]: significantly attenuated
Inhibition of ERα luciferase reporter activity ([3]; T47D breast cancer cells): dose-responsive inhibition
Inhibition of Hippo pathway transcription factor luciferase reporter activity ([4]; MCF7 breast cancer cells): dose-responsive inhibition
EN171-mediated inhibition of Hippo pathway transcriptional activity [4, 5]: significantly attenuated
